Values belong to the compound of their own block, whether it stands above or below them.
Columns and labels:
[1] = tested on: SU-DHL-4 subcutaneously transplanted tumor; experiment: Antitumor effect on subcutaneous transplant model in SCID mouse, DLBCL strain SU-DHL-4, compound 1a (Test Example 3); type: in vivo; details: for T/C: V/V0 of group divided by vehicle group; for Body Weight / Tumor Volume (mm^3): male SCID mouse; for Body Weight / V/V0 (tumor growth rate) / Tumor Volume (mm^3): mean of n=5; for Tumor Volume (mm^3): compound 1a 3 mg/kg i.v. (tail vein) 5 times a week for 2 weeks
Protocol: cells of DLBCL strain SU-DHL-4 (Code No. ACC 495, Deutsche Sammlung von Mikroorganismen and Zellkulturen GmbH) suspended in a 1:1 mixed solution of PBS and matrigel (CORNING Code No. 354234) were transplanted subcutaneously to the ventral side of a male SCID mouse. Eighteen days after the transplantation, the body weight and the tumor diameter were measured, the tumor volume was calculated by the following formula, and the mice were divided into two groups (n=5) so that the average tumor volume of each group was equal.
(§1) [Tumor volume (mm^3)]=[Tumor long diameter (mm)]×[Tumor short diameter (mm)]^2×0.5
The test was conducted in two groups, a vehicle administration group and a compound 1a administration group (compound administration group). To the compound 1a administration group, a solution of compound 1a dissolved in 30% DMSO/3% Tween 80/physiological saline so as to give a final concentration of 0.6 mg/mL was administered intravenously (tail vein) at 5 mL/kg (3 mg/kg) 5 times a week for 2 weeks. To the vehicle administration group, 30% DMSO/3% Tween 80/physiological saline was administered intravenously (tail vein) at 5 mL/kg on the same schedule as the compound 1a administration group. After the start of the test, body weight and tumor diameter were measured twice a week. The tumor volume on each measurement day was calculated by the above formula. The tumor growth rate (hereinafter referred to as V/VO) was calculated by dividing the tumor volume V on each measurement day by the tumor volume VO on the test start day (Day 0). The T/C was calculated by dividing the average value (T) of V/VO of each group by the average value (C) of the vehicle administration group.

[2] = tested on: SU-DHL-4 subcutaneously transplanted tumor; experiment: Antitumor effect on subcutaneous transplant model in SCID mouse, DLBCL strain SU-DHL-4, compound 1b (Test Example 9); type: in vivo; details: for Tumor Volume (mm^3): compound 1b 10 mg/kg i.v. (tail vein) once on the test start day; for Tumor Volume (mm^3) / Body Weight: male SCID mouse; for Tumor Volume (mm^3) / Body Weight / V/V0 (tumor growth rate): mean of n=5; for T/C: V/V0 of group divided by vehicle group
Protocol: 1×10^7 cells of DLBCL strain SU-DHL-4 (Code No. ACC 495, Deutsche Sammlung von Mikroorganismen and Zellkulturen GmbH) suspended in a 1:1 mixed solution of PBS and matrigel (CORNING Code No. 354234) were transplanted subcutaneously on the ventral side of male SCID mouse. 14 days after the transplantation, the body weight and tumor diameter were measured, the tumor volume was calculated by the following formula, and the mice were divided into two groups (n=5) so that the average tumor volume of each group was equal. E-workbook software (ID Business Solutions) was used for grouping and measurement.
as §1
To the compound 1b administration group, a solution of compound 1b dissolved in 30% DMSO/3% Tween 80/physiological saline so as to give a final concentration of 2 mg/mL was administered intravenously (tail vein) at 5 mL/kg (10 mg/kg) once on the test start day. To the vehicle administration group, 30% DMSO/3% Tween 80/physiological saline was administered intravenously (tail vein) at 5 mL/kg in the same schedule as in the compound 1b administration group. After the start of the test, body weight and tumor diameter were measured twice a week. The tumor volume on each measurement day was calculated by the above formula. The tumor growth rate (hereinafter referred to as V/VO) was calculated by dividing the tumor volume V on each measurement day by the tumor volume VO on the test start date (Day 0). The T/C was calculated by dividing the average value (T) of V/VO of each group by the average value (C) of the vehicle administration group.

[3] = Day 0, compound 1a 3 mg/kg i.v. 5 times a week for 2 weeks
[4] = Day 3, compound 1a 3 mg/kg i.v. 5 times a week for 2 weeks
[5] = Day 7, compound 1a 3 mg/kg i.v. 5 times a week for 2 weeks
[6] = Day 10, compound 1a 3 mg/kg i.v. 5 times a week for 2 weeks
[7] = Day 14, compound 1a 3 mg/kg i.v. 5 times a week for 2 weeks
[8] = Day 18, compound 1a 3 mg/kg i.v. 5 times a week for 2 weeks
[9] = compound 1a 3 mg/kg i.v. 5 times a week for 2 weeks, SCID mouse
[10] = Day 0, compound 1b 10 mg/kg i.v. once
[11] = Day 4, compound 1b 10 mg/kg i.v. once
[12] = Day 7, compound 1b 10 mg/kg i.v. once
[13] = Day 10, compound 1b 10 mg/kg i.v. once
[14] = Day 14, compound 1b 10 mg/kg i.v. once
[15] = Day 17, compound 1b 10 mg/kg i.v. once
[16] = compound 1b 10 mg/kg i.v. once, SCID mouse

weight loss [1, 9]: no weight loss was observed
Structure (SMILES): CCC(=O)N1c2ccccc2[C@H](Nc2ccc(C(=O)NCCCNC(=O)c3ccc(N[C@@H]4C[C@H](C)N(C(=O)CC)c5ccccc54)cc3)cc2)C[C@@H]1C (relative stereo) [Compound 1a, N,N′-(Propane-1,3-diyl)bis(4-{[(2S*,4R*)-2-methyl-1-propionyl-1,2,3,4-tetrahydroquinolin-4-yl]amino}benzamide)]
T/C [1, 3]: 1.00 | Body Weight [1, 3]: 24.56 g | V/V0 (tumor growth rate) [1, 3]: 1.00 | Tumor Volume (mm^3) ([1]; Day 0): 246.14 mm^3 | T/C [1, 4]: 0.71 | Body Weight [1, 4]: 25.36 g | V/V0 (tumor growth rate) [1, 4]: 1.15 | Tumor Volume (mm^3) ([1]; Day 3): 284.29 mm^3 | T/C [1, 5]: 0.48 | Body Weight [1, 5]: 25.44 g | V/V0 (tumor growth rate) [1, 5]: 1.29 | Tumor Volume (mm^3) ([1]; Day 7): 326.25 mm^3 | T/C [1, 6]: 0.22 | Body Weight [1, 6]: 25.14 g | V/V0 (tumor growth rate) [1, 6]: 0.85 | Tumor Volume (mm^3) ([1]; Day 10): 214.74 mm^3 | T/C [1, 7]: 0.17 | Body Weight [1, 7]: 25.74 g | V/V0 (tumor growth rate) [1, 7]: 0.89 | Tumor Volume (mm^3) ([1]; Day 14): 224.55 mm^3 | T/C [1, 8]: 0.16 | Body Weight [1, 8]: 26.23 g | V/V0 (tumor growth rate) [1, 8]: 1.30 | Tumor Volume (mm^3) ([1]; Day 18): 325.61 mm^3 | antitumor effect on SU-DHL-4 subcutaneously transplanted tumor [1, 9]: potent antitumor effect

weight loss [2, 16]: no weight loss was observed
Structure (SMILES): Cc1sc2c(c1C)C(c1ccc(C(=O)NCCCNC(=O)c3ccc(C4=N[C@@H](CC(=O)OC(C)(C)C)c5nnc(C)n5-c5sc(C)c(C)c54)cc3)cc1)=N[C@@H](CC(=O)OC(C)(C)C)c1nnc(C)n1-2 [Compound 1b, Di-tert-butyl 2,2′-[(6S,6′S)-({[propane-1,3-diylbis(azanediyl)]bis(carbonyl)}bis(4,1-phenylene))bis(2,3,9-trimethyl-6H-thieno[3,2-f][1,2,4]triazolo[4,3-a][1,4]diazepine-4,6-diyl)]diacetate]
Tumor Volume (mm^3) ([2]; Day 0): 208 mm^3 | T/C [2, 10]: 1.00 | Body Weight [2, 10]: 25 g | V/V0 (tumor growth rate) [2, 10]: 1.00 | Tumor Volume (mm^3) ([2]; Day 4): 101 mm^3 | T/C [2, 11]: 0.31 | Body Weight [2, 11]: 25 g | V/V0 (tumor growth rate) [2, 11]: 0.49 | Tumor Volume (mm^3) ([2]; Day 7): 49 mm^3 | T/C [2, 12]: 0.12 | Body Weight [2, 12]: 25 g | V/V0 (tumor growth rate) [2, 12]: 0.24 | Tumor Volume (mm^3) ([2]; Day 10): 66 mm^3 | T/C [2, 13]: 0.11 | Body Weight [2, 13]: 26 g | V/V0 (tumor growth rate) [2, 13]: 0.32 | Tumor Volume (mm^3) ([2]; Day 14): 87 mm^3 | T/C [2, 14]: 0.12 | Body Weight [2, 14]: 26 g | V/V0 (tumor growth rate) [2, 14]: 0.42 | Tumor Volume (mm^3) ([2]; Day 17): 122 mm^3 | T/C [2, 15]: 0.13 | Body Weight [2, 15]: 27 g | V/V0 (tumor growth rate) [2, 15]: 0.59 | antitumor effect on SU-DHL-4 subcutaneously transplanted tumor [2, 16]: potent antitumor effect

From US20220378923A1, “BET DEGRADER” (KYOWA KIRIN CO., LTD., priority 2019, published 2022)
